In series [1] the test system is A/HebeiXinhua/SWL1106/2017 (oseltamivir- and amantadine-resistant H1N1). Nature of the series: microbe, parasite or virus in culture. The note with it: Influenza A virus, H1N1, MDCK.
Series [2] shares this test system.

≈ marks a conversion by molar mass, not a printed value. Where “and” joins values, the source holds several entries; their conditions need not be identical. Equal values may be shown once. Read-outs that look alike come from different tables or passages of the source. Bounds are passed on as bounds.

Usually IC50 stands for the point on the concentration scale where inhibition reaches its midpoint. In series [1], `NC12CC3CC(CC(C3)C1)C2` [Amantadine] yielded an IC50 above 100 µg/mL.

Consider `COc1c(O)cc2oc(-c3ccc(O)cc3)cc(=O)c2c1O` [Dinatin], for which the “SI, selection index (TC50/IC50)” value with A/PR/8/34 (H1N1) was above 2.66. Regarding `COc1ccc(-c2cc(=O)c3c(O)c(OC)c(OC)cc3o2)cc1O` [Eupatorin], the IC50 in series [2] was 87.17 ± 5.23 µg/mL and 69.16 ± 2.12 µg/mL and 89.29 ± 5.22 µg/mL; in series [1] it was 71.8 ± 6.58 µg/mL (≈ 209 µM). With `CCOC(=O)C1=C[C@@H](OC(CC)CC)[C@H](NC(C)=O)[C@@H](N)C1` [Oseltamivir], the IC50 in series [1] was above 100 µg/mL.
